Values quoted from earlier work as cited in patent US11890366B2, “Method for dyeing keratin material, comprising the use of an organic C1-C6 alkoxy silane and a copolymer of styrene and maleic acid (anhydride)” (Henkel AG & Co. KGaA, priority 2019, dated 2024).

Row | solubility in water (25° C.) | SMILES | other results
1 | 2500 µg/mL | Nc1cc(S(=O)(=O)[O-])cc2cc(S(=O)(=O)[O-])c(N=Nc3ccccc3)c(O)c12.[Na+].[Na+] [Acid Red 33, dinatrium salt of 5-amino-4-hydroxy-3-(phenylazo)-naphthalene-2,7-disulphonate] | –
2 | more than 7 g/L | O=S(=O)([O-])c1ccc(N=Nc2c(O)ccc3ccccc23)cc1.[Na+] [Acid Orange 7, sodium salt of 4-[(2-hydroxy-1-naphthyl)azo]benzenesulfonate] | –

Continued, compound first:

Row | SMILES | solubility in water (25° C.) | other results
3 | CCN(Cc1cccc(S(=O)(=O)[O-])c1)c1ccc(C(=C2C=CC(=[N+](CC)Cc3cccc(S(=O)(=O)[O-])c3)C=C2)c2ccccc2S(=O)(=O)[O-])cc1.[Na+].[Na+] [Acid Blue 9] | – | water solubility (25° C.): greater than 20 % by weight
4 | O=C([O-])c1c(Cl)c(Cl)c(Cl)c(Cl)c1-c1c2c(Br)cc(=O)c(Br)c-2oc2c(Br)c(O)cc(Br)c12.O=C([O-])c1c(Cl)c(Cl)c(Cl)c(Cl)c1-c1c2c(Br)cc(=O)c(Br)c-2oc2c(Br)c(O)cc(Br)c12.[Na+].[Na+] [Acid Red 92, disodium salt of 3,4,5,6-tetrachloro-2-(1,4,5,8-tetrabromo-6-hydroxy-3-oxoxanthen-9-yl)benzoic acid] | greater than 10 g/L | –
5 | O=C([O-])C1=NN(c2ccc(S(=O)(=O)[O-])cc2)C(=O)C1N=Nc1ccc(S(=O)(=O)[O-])cc1.[Na+].[Na+].[Na+] (centres unmarked) [Acid Yellow 23, trisodium salt of 4,5-dihydro-5-oxo-1-(4-sulfophenyl)-4-((4-sulfophenyl)azo)-1H-pyrazole-3-carboxylic acid] | – | solubility in water (in words) (water at 25° C.): readily soluble
